# Measurements published in patent US6465433B1, “Boronic ester and acid compounds, synthesis and uses” (Millennium Pharmaceuticals, Inc., priority 1994, dated 2002).
# Target: SDS-activated 20S proteasome from rabbit muscle (Oryctolagus cuniculus, UniProt G1SU71+G1T4Q9)
# Assay: Kinetic assay: inhibition of the 20S proteasome
# Format: biochemical
# Protocol: P, AA^1, AA^2, AA^3, and Z^1 and Z^2 represent the structures present on formula (1) or (2). The protocol for the kinetic assay described in Tables II-V is as described in Rock et al., Cell 78:761-771 (1994). In these tables, Ki values are reported, which are dissociation constants for the equilibrium that is established when enzyme and inhibitor interact to form the enzyme:inhibitor complex. The reactions were performed using SDS-activated 20S proteasome from rabbit muscle. The substrate used was Suc-LLVY-AMC.
# [1] = Table II, SDS-activated 20S proteasome from rabbit muscle, substrate Suc-LLVY-AMC
Compound,Ki [1] [nM],"Ki (Table III, dipeptide boronic acid vs dipeptide aldehyde) [nM]"
"trans-3-Phenyl-D,L-proline-L-leucine Boronic Acid Hydrochloride Salt [MG-363]",3.45,–
N-Methyl-N-Cbz-L-leucine-L-leucine Boronic Acid [MG-268],998,–
trans-4-Phenoxy-L-proline-L-leucine Boronic Acid [MG-349],18,–
CC(C)C[C@H](NC(=O)[C@H](Cc1ccccc1)NC(=O)OCc1ccccc1)B(O)O [MG-356],0.13,–
CC(C)C[C@H](NC(=O)[C@H](Cc1ccccc1)NC(=O)c1ccoc1)B(O)O [MG-358],0.17,–
"CB(C)[C@H](CC(C)C)NC(=O)[C@H](Cc1cccc2ccccc12)NC(=O)N1CCOCC1 [MG-318, N-(4-Morpholine)carbonyl-β-(1-naphthyl)-L-alanine-L-leucine Dimethylborane]",640,–
"CC(C)C[C@H](NC(=O)[C@@H](CC(=O)N1CCOCC1)Cc1cccc2ccccc12)B(O)O [MG-324, N-[3-(4-Morpholine)carbonyl-2(R)-(1-naphthyl)methyl]propionyl-L-leucine Boronic Acid]",2,–
CC(C)CC(NC(=O)C(CC(C)C)NC(=O)OCc1ccccc1)B1OC2CC3CC(C3(C)C)C2(C)O1 (stereo not drawn) [MG-264],119,–
CO[C@](C(=O)N[C@@H](CC(C)C)B(O)O)(c1ccccc1)C(F)(F)F [MG-284],1200,–
CC(=O)N[C@@H](CC(C)C)B(O)O [MG-323],850,–
CC(C)CC(NC(=O)C1CCCCN1)B(O)O (stereo not drawn) [MG-357],23,–
"CC(=O)N1Cc2ccccc2CC1C(=O)N[C@@H](CC(C)C)B(O)O (stereo partly drawn) [MG-310, N-Acetyl-1,2,3,4-tetrahydro-3-isoquinolinecarbonyl-L-leucine Boronic Acid]",90,–
"CB(O)[C@H](CC(C)C)NC(=O)[C@H](Cc1cccc2ccccc12)NC(=O)N1CCOCC1 [MG-317, N-(4-Morplioline)carbonyl-β-(1-naphtlyl)-L-alanine-L-leucine Methylboronic Acid]",99,–
CC(C)CC(NC(=O)C(Cc1cccc2ccccc12)NC(=O)N1CCOCC1)B(O)O (stereo not drawn) [MG-293],2300,–
"CC(C)C[C@@H](C=O)NC(=O)[C@H](CC(C)C)NC(=O)OCc1ccccc1 [MG-105, reference compound]",–,15000
CC(C)C[C@H](NC(=O)[C@H](Cc1ccccc1)NC(=O)c1cc[nH]c1)B(O)O [MG-361],0.14,–
CC(C)C[C@H](NC(=O)C[C@H](O)[C@H](Cc1cccc2ccccc12)NS(=O)(=O)c1cccc2cccnc12)B(O)O [MG-354],28,–
"cis-3-Phenyl-D,L-proline-L-leucine Boronic Acid Hydrochloride Salt [MG-359]",5.5,–
CC(C)C[C@H](NC(=O)[C@H](Cc1cccnc1)NC(=O)N1CCOCC1)B(O)O [MG-300],1.3,–
CC(C)C[C@H](NC(=O)[C@H](Cc1c[nH]c2ccccc12)NS(C)(=O)=O)B(O)O [MG-295],5.8,–
CC(C)C[C@H](NC(=O)[C@@H]1C[C@@H](OCc2ccc3ccccc3n2)CN1)B(O)O [MG-385],23,–
CC(C)C[C@H](NC(=O)[C@H](Cc1cccc2ccccc12)NS(C)(=O)=O)B1OCCNCCO1 [MG-291],0.28,–
CC(C)C[C@H](NC(=O)[C@@H]1CCCCN1)B(O)O [MG-366],45.2,–
"CC(C)C[C@H](CC(=O)NCc1ccccc1)B(O)O [MG-342, N-Benzyl-(3R)-3-dioxyboryl-5-methylhexanamide]",9700,–
CC(C)C[C@H](NC(=O)[C@H](Cc1ccccn1)NC(=O)c1cnccn1)B(O)O [MG-368],5.6,–
CC(C)C[C@H](NC(=O)NCc1ccccc1)B(O)O [MG-362],6400,–
CC(C)C[C@H](NC(=O)[C@H](Cc1ccccn1)NC(=O)c1ccc2ccccc2n1)B(O)O [MG-338],1.4,–
CC(C)CC(NC(=O)C1CCCNC1)B(O)O (stereo not drawn) [MG-339],1600,–
N-(3-phenylpropionyl)-L-phenylalanine-L-leucine boronic acid [MG-352],0.15,–
CC(C)CC(NC(=O)C1CC2CCCCC2N1)B(O)O (stereo not drawn) [MG-386],92,–
